Measurements published in patent US11426389B2, “Compositions and methods for promoting hematopoietic stem cell regeneration” (priority 2017, dated 2022).

Experiments:
ShCamkk2 M1 cells = format: cell-based
Method: FIG. 6A-6F. CaMKK2 couples radiation signaling with the AMPK anti-proliferative pathway. HSPC (KL+KSL) were isolated from WT and Camkk2 null (KO) mice and irradiated in vitro with 400 cGy or left non-irradiated. Cells were then cultured for 1-h in regular medium. Protein expression was normalized by actin and expressed as fold change over basal (non-irradiated WT HSPC), and is reported on the top of each lane. (A) Immunoblots of CaMKK2, phospho-CaMK1 (pCaMK1) and actin. (B) Immunoblots of Tp53, phosphorylated AMPK and S6rp (pAMPK and pS6rp, respectively). (C-E) M1 myeloid progenitor cells were transduced with lentiviral vectors expressing a short hairpin sequence for silencing Camkk2 or a control sequence (ShCamkk2 and Ctrl, respectively). Ctrl and ShCamkk2 M1 cells were then irradiated or left non-irradiated. One-hour after irradiation, M1 cell protein expression was assessed by immunoblotting. (C) Expression of CaMKK2 and actin. […] Cell number was determined using a colorimetric assay, and the results are expressed as fold change of non-irradiated cells cultured in the absence of AICAR. […]
To determine the functional effects of Camkk2 deficiency in M1 cells, control and ShCamkk2 M1 cells were exposed to 300 cGy with or without a cell permeable AMPK agonist and the number of live M1 cells were determined 24 h after irradiation.

[1] = system: 900 cGy TBI wild-type mice; assay: Survival of lethally irradiated (900 cGy TBI, LD100/15) wild-type mice treated with STO-609; format: in vivo; settings: 10 μM/kg on days 1, 2 and 3 post-TBI, intravenous, vs vehicle, n=10 per group
Method: (§1) FIGS. 7A-7D. Pharmacologic inhibition of CaMKK2 enhances hematopoietic regeneration in vivo. Treatment with STO-609, a CaMKK2 inhibitor, mitigates the acute hematopoietic radiation syndrome. (A) Scheme of irradiation and STO-609 treatment in wild type mice. (B) Survival of 900 cGy TBI wild-type mice treated with vehicle or STO-609 (n=10 per group). Wild-type mice were irradiated with 500 cGy TBI and were then treated with STO-609 or vehicle after 24 h. Nine days after TBI, the mice were killed and bones were removed. The BM cells were counted and stained to identify HSPC (BMC). (C) Representative staining and gating strategy. (D) Absolute number of BMC and HSPC (upper and lower graph, respectively). The results are expressed as the fold changes over the absolute number of cells recovered form vehicle-treated wild type mice, and are normalized for one femur. Two independent experiments have been combined (total number of mice-9 per group). Bars graph reports mean±S.E.M. *P-value<0.05, **P-value<0.01/
(§2) CaMKK2-EGFP transgenic reporter mice were used. Radiation was delivered by a Shepherd Cs^137γ-irradiator at a dose rate of approximately 600 cGy per min. […]
(§3) It was hypothesized that pharmacologic inhibition of CaMKK2 increases survival and HSPC recovery following TBI. […] Next, the effects of STO-609 treatment on HSPC of mice receiving 500 cGy TBI were evaluated. […]

HSPC = assay: Bone marrow cell and HSPC recovery in 500 cGy TBI wild-type mice treated with STO-609; format: in vivo; settings: 9 days after TBI, vs vehicle-treated mice
Method: as §1, §2, §3

Row | SMILES | cell death (ShCamkk2 M1 cells; M1 cells, following radiation or AICAR treatment (data not shown)) | number of live M1 cells (proliferation) after irradiation (ShCamkk2 M1 cells; ShCamkk2 M1 cells, 300 cGy, 24 h, AICAR 100 μM) | survival following TBI [1] | HSPC in the BM (HSPC) | total BM cells in the BM (HSPC)
1 | NC(=O)c1ncn([C@@H]2O[C@H](CO)[C@@H](O)[C@H]2O)c1N [AICAR, 5-aminoimidazole-4-carboxamide 1-β-d-ribofuranoside] | no increase in cell death | reverted the refractory phenotype of ShCamkk2 M1 cells | – | – | –
2 | O=C(O)c1ccc2c3c1cccc3c(=O)n1c3ccccc3nc21 [STO-609, 7H-benzimidazo(2,1-a)benz(de)isoquinoline-7-one-3-carboxylic acid] | – | – | significantly prolonged survival | More | More total BM cells
